The record followed here is US11401246B2, “Triazole glycolate oxidase inhibitors” (CANTERO THERAPEUTICS, INC., priority 2018, dated 2022).

SMILES strings stand for the structures.

This assay concerns the target T1, human glycolate oxidase (hGO) (Homo sapiens, UniProt Q9UJM8).
T1 construct: His-tag (6 histidines, pET-15b) (N); made in house; host or cells: E. coli BL21 (DE3)
T1 sequence (Q9UJM8 1-370): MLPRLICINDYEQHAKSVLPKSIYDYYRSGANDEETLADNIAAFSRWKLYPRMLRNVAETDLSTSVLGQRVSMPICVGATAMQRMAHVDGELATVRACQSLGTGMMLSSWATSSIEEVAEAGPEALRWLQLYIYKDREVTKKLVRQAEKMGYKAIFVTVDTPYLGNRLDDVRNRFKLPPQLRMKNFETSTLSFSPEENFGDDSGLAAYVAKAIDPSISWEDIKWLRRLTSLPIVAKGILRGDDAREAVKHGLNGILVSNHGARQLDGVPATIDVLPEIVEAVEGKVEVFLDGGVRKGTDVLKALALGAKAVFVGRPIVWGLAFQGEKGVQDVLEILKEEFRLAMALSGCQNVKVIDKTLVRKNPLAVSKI
Put plainly: In vitro inhibition of human glycolate oxidase (enzymatic assay, HRP-coupled Trinder reaction).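 Note: values are IC50 potency bins despite the % Inhibition label.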 The format is biochemical. To be noted: recombinant hGO, 40 mM glycolic acid, pH 7, read at 515 nm, 1 minute after initiation of Trinder reaction; read-out: % Inhibition. The gist of the method:
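Glyoxylate production measured indirectly: H2O2 from hGO oxidation of 40 mM glycolic acid (pH 7 phosphate, 0.1 mM EDTA) drives HRP-coupled quinoneimine dye formation, read spectrophotometrically at 1 minute. Enzyme is His-tagged human Hao1 expressed in BL21 E. coli and nickel-affinity purified.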
Take `O=C(O)c1nn[nH]c1Oc1ccc(-c2cccc(C(F)(F)F)c2)cc1` [Example 112, 5-((3′-(trifluoromethyl)-[1,1′-biphenyl]-4-yl)oxy)-1H-1,2,3-triazole-4-carboxylic Acid]: the IC50 was in the range of 100 to 200 nM.
The result for `CC(C)c1ccc(-c2ccc(Sc3[nH]nnc3C(=O)O)cc2)cc1` [Example 113, 5-((4′-isopropyl-[1,1′-biphenyl]-4-yl)thio)-1H-1,2,3-triazole-4-carboxylic Acid] reads 100 to 200 nM.
The result for `O=C(O)c1nn[nH]c1Oc1cccc(-c2ccc(C(F)(F)F)cc2)c1` [Example 114, 5-((4′-(trifluoromethyl)-[1,1′-biphenyl]-3-yl)oxy)-1H-1,2,3-triazole-4-carboxylic Acid] reads 100 to 200 nM; that for `O=C(O)c1nn[nH]c1Sc1ccc(-c2ccc(C(F)(F)F)cc2)cc1` [Example 115, 5-((4′-(trifluoromethyl)-[1,1′-biphenyl]-4-yl)thio)-1H-1,2,3-triazole-4-carboxylic Acid], 100 to 200 nM.
On to `O=C(O)c1nn[nH]c1Oc1ccc(-c2ccc(-c3cccnc3)cc2)cc1` [Example 120, 5-[4[4-(3-pyridyl)phenyl]phenoxy]-1H-1,2,3-triazole-4-carboxylic Acid], for which the IC50 lay in the range of 100 to 200 nM.
`O=C(O)c1nn[nH]c1Oc1ccc(-c2ccc(C3CC3)cc2)cc1` [Example 121, 5-((4′-cyclopropyl-[1,1′-biphenyl]-4-yl)oxy)-1H-1,2,3-triazole-4-carboxylic Acid]: the IC50 was below 100 nM.
The result for `CC1(c2ccc(-c3ccc(Oc4[nH]nnc4C(=O)O)cc3)cc2)CC1` [Example 122, 5-((4′-(1-methylcyclopropyl)-[1,1′-biphenyl]-4-yl)oxy)-1H-1,2,3-triazole-4-carboxylic Acid] reads 100 to 200 nM; that for `O=C(O)c1nn[nH]c1Oc1ccc(-c2ccc(C3CC3(F)F)cc2)cc1` (stereo not shown) [Example 123, 5-((4′-(2,2-difluorocyclopropyl)-[1,1′-biphenyl]-4-yl)oxy)-1H-1,2,3-triazole-4-carboxylic Acid], 100 to 200 nM; that for `O=C(O)c1nn[nH]c1Oc1ccc(C2CCC3(CC2)CC3(F)F)cc1` (stereo not shown) [Example 126, 5-(4-(1,1-Difluorospiro[2.5]octan-6-yl)phenoxy)-1H-1,2,3-triazole-4-carboxylic acid], above 200 nM.
Consider `O=C(O)c1nn[nH]c1Oc1ccc(-c2ccc(C3CC(F)(F)C3)cc2)cc1` [Example 127, 5-((4′-(3,3-difluorocyclobutyl)-[1,1′-biphenyl]-4-yl)oxy)-1H-1,2,3-triazole-4-carboxylic Acid], for which the IC50 is 100 to 200 nM.
The result for `Cc1cc(-c2ccc(-c3ccc(Oc4[nH]nnc4C(=O)O)cc3)cc2)ccn1` [Example 129, 5˜((4′-(2-methylpyridin-4˜yl)-[1,1′-biphenyl]-4-yl)oxy)-1H-1,2,3-triazole-4-carboxylic Acid] reads 100 to 200 nM; that for `O=C(O)c1nn[nH]c1Oc1ccc(C2CC2(F)F)cc1` (stereo not shown) [Example 130, 5-(4-(2,2-difluorocyclopropyl)phenoxy)-1H-1,2,3-triazole-4-carboxylic Acid], above 200 nM; that for `O=C(O)c1nn[nH]c1Oc1ccc(C2CCC(F)(F)C2)cc1` (stereo not shown) [Example 131, 5-(4-(3,3-Difluorocyclopentyl)phenoxy)-1H-1,2,3-triazole-4-carboxylic Acid], 100 to 200 nM.
